According to US5688936A, “Vesicle membrane transport proteins” (priority 1993, dated 1997):
Entries after “also recorded” stand apart in the source; their conditions may differ.

How the values were obtained:
[1] = target: T1, chromaffin granule amine transport protein (Rattus norvegicus, UniProt Q01818); assay: Quantitative [3H]dopamine transport assay with mpp^res CHO cell homogenate; type: biochemical; settings: dose-response, 2-minute incubation (FIG. 15C)
T1 sequence (Q01818 1-521): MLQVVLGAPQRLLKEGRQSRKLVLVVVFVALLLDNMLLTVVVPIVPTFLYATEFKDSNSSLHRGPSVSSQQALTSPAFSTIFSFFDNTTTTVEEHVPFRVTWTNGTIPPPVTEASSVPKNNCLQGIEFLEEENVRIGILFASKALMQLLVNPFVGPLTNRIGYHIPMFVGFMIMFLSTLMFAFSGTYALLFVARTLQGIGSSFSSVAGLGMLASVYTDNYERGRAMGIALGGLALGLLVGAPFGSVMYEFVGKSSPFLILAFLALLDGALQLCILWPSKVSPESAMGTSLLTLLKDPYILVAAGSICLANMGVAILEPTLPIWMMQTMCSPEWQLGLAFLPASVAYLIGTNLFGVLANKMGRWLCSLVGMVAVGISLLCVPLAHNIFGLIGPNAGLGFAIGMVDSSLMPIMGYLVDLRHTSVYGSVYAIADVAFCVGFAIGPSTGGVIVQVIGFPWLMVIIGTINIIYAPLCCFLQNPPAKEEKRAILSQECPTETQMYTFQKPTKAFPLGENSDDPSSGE
Protocol: The quantity of label bound is measured after filtration of the assay mixture. Preferably, the label is a radioactive label. […] This can be done by standard graphic kinetic techniques such as the Lineweaver-Burke plot.
Incubation was performed at 29° C. for the time period indicated (from 2 minutes to 30 minutes). The assay was terminated by dilution in cold assay buffer followed by filtration through 0.2 μm Supor™ 200 membranes (Gelman, Ann Arbor, Mich.) and the bound radioactivity was measured. The cells used for the quantitative assay are selected in MPP^+ or screened with antibody to ensure that they express the transporter at high levels, as it is difficult to measure activity in this assay at low levels of transporter expression.
The quantitative transport test was performed as described above on wild-type CHO cells and mpp^res CHO cells.

wild-type CHO cells = assay: MTT cytotoxicity assay in wild-type CHO cells; type: cell-based, Chinese hamster; settings: wild-type CHO, lower MPP+ concentrations
Protocol: (§1) Differential susceptibility to the respiratory complex I inhibitors MPP^+ and rotenone was shown by measuring toxicity by measuring general cell dehydrogenase activity with reduction of a tetrazolium dye (MTT) in a spectrophotometric plate assay as described by Hansen et al., J. Immunol. Methods 119:203-210 (1989). Briefly, a stock solution of MTT (3,(4,5-dimethylthiazol-2-yl)2,5-diphenyltetrazolium bromide) was dissolved at a concentration of 5 mg/ml in sterile phosphate buffered saline at room temperature. To each well was added 25 μl of the stock solution. After two hours of incubation at 37° C., 100 μl of extraction buffer (20% w/v of SDS in a solution of 50% each dimethylformamide and demineralized water with the pH adjusted to 4.7 with acetic acid and HCl). After an overnight incubation at 37° C., the optical densities at 570 nm were measured using a multiscanner, employing the extraction buffer as the blank. This assay was carried out in triplicate on 96-well plates (NUNC, Denmark). MPP^+ and rotenone at the concentrations indicated in FIG. 6a and 6b, respectively, was added to wild-type and MPP^+ -resistant CHO cells at approximately 50% confluence, and toxicity was assayed after 2-3 days by measuring general cell dehydrogenase activity with the reduction of the tetrazolium dye MTT (3,(4,5-dimethylthiazol-2-yl)2,5-diphenyl-tetrazolium bromide). After addition of the dye at a final concentration of 1 mg/ml, the cells were incubated for two hours at 37° C. and the formazan product was solubilized in 10% sodium dodecyl sulfate (SDS). The plates were maintained at 37° C. for an additional twenty hours and the optical density was determined in an ELISA plate reader at a test wavelength of 570 nm, a reference wavelength of 630 nm and a calibration setting of 1.99. All determinations were performed in triplicate and expressed as the mean, with the error bars representing standard deviation (FIG. 6a and 6b).

[2] = test system: MPP^+ -resistant CHO cells; assay: MTT cytotoxicity assay in MPP+-resistant transfected CHO cells; type: cell-based, Chinese hamster; settings: 1 μM reserpine, MPP+-resistant CHO cells
Protocol: as §1
To determine whether an alteration in the process of respiration was responsible for the resistance to MPP^+, the effects of other known respiratory inhibitors were examined. […] Thus, if the resistance were due to a change in the site of action, the transfected cells should also show resistance to rotenone. […] However, rotenone is considered to have its selected effect on respiration at relatively low doses, and an additional, less specific effect at higher doses.
Therefore, the toxicity of MPP^+ to transfected cells in the presence of 1 μM reserpine was examined.

transfected CHO cells = assay: Survival/selection/growth of transfected CHO cells in MPP+; type: cell-based, Chinese hamster; settings: reserpine concentration not stated
Protocol: Using the above methods, the PC12 cDNA library constructed in the plasmid expression vector CDM8 was transfected into CHO cells. Using the selectable marker RSV- neo (Walker, Weizmann Institute, Israel), […] independent stable transformants were obtained after selection in the neomycin analogue G418 at 400 μg/ml effective dose. These cells were then selected at 40% confluence in 1 mM MPP^+. […] However, at four weeks, a colony of cells without refractile inclusions appeared and rapidly covered the plate. The apparently normal growth of these cells in the presence of 1 mM MPP^+ stands in marked contrast to all of the resistant clones obtained without transfection, which grew very slowly if at all. […] However, at 1 mM MPP^+, the resistant cells did show some toxicity, particularly when the assay was performed at higher cell density.
To identify the cDNA sequences responsible for conferring resistance to MPP^+, integrated plasmids were rescued from the primary CHO transformant obtained as described above in Example 1. […] The primary MPP^+ -resistant CHO transformant was amplified in culture and following cell lysis in 5M guanidinium isothiocyanate, the high molecular weight DNA prepared by repeated precipitation in isopropanol. After digestion with Not I, which cleaves the CDM8 vector once downstream of the cDNA insertion site as well as at rare eight-nucleotide recognition sites elsewhere in the genome, the DNA was religated and transformed into E. coli by electroporation as described by Stern-Bach et al., J. Biol. Chem. 265:3961-3966 (1990). Four pools of the derived plasmids containing approximately 50 colonies each were transfected into CHO cells and after two days were selected in 1 mM MPP^+. Four weeks later, one pool gave rise to several MPP^+ -resistant colonies, two pools gave rise to 1-2 colonies and the fourth pool and CDM8 vector gave rise to no healthy, resistant colonies. Restriction enzyme analysis of the plasmids in the pool conferring the highest frequency of resistance to MPP^+ indicated three independent clones of 1.0, 1.3 and 2.5 kb. […]

[3] = test system: bacterial BMR transporter; settings: cited from earlier work

SMILES: COC(=O)[C@H]1[C@H]2C[C@@H]3c4[nH]c5cc(OC)ccc5c4CCN3C[C@H]2C[C@@H](OC(=O)c2cc(OC)c(OC)c(OC)c2)[C@@H]1OC [reserpine]
- inhibition of dopamine transport [1]: inhibition by both reserpine and tetrabenazine
- effect on MPP+ toxicity in wild-type cells (wild-type CHO cells): very little reproducible effect
- reversal of MPP+ resistance [2]: Dramatic reversion to wild-type CHO sensitivity
- reversal of MPP+ resistance of transformants (transfected CHO cells): reversal of MPP^+ resistance; also recorded: reversible; also recorded: reversed
- inhibition of bacterial BMR transporter [3]: inhibits
